Results published in US20200078404A1, “COMBINATION OF A CELL THERAPY AND AN IMMUNOMODULATORY COMPOUND” (Juno Therapeutics, Inc., priority 2017, published 2020).

What was measured:
[1] = tested on: OPM-2 target cells; assay: Cytolytic activity of anti-BCMA CAR T cells co-cultured with OPM-2 target cells with or without lenalidomide; format: cell-based, human
Protocol: […]. The OPM-2 cells were labeled with NucLight Red (NLR) to permit tracking of target cells by microscopy substantially as described above. […] […].
[…]. Cytolytic activity was measured by loss of red fluorescent cells. […].

[2] = tested on: K562.CD19 target cells; assay: Cytolytic function of anti-CD19 CAR-expressing T cells against K562.CD19 target cells; format: cell-based, human
Protocol: K562.CD19 target cells were transduced with NucLight Red to permit their tracking by microscopy. Cytolytic activity was assessed by measuring the loss of viable target cells over a period of five days, as determined by red fluorescent signal (using the IncuCyte® Live Cell Analysis System, Essen Bioscience).

Nc1cccc2c1CN(C1CCC(=O)NC1=O)C2=O (stereo not drawn) [lenalidomide, 3-(4-amino-1-oxo-1,3-dihydro-2H-isoindol-2-yl)piperidine-2,6-dione]
cytolytic activity of anti-BCMA CAR+ T cells ([1]; 0.01-10 μM lenalidomide, E:T 1:1, 7 days, four donors): enhance cytolytic activity of the anti-BCMA CAR+ T cells against OPM-2 target cells, in a dose-dependent manner
antigen-specific anti-BCMA CAR-T cytolytic activity ([1]; healthy donor and multiple myeloma patient, E:T 0.3:1, 6 to 7 days): increased by lenalidomide in a concentration-dependent manner
anti-BCMA CAR T cytolytic activity ([1]; increased concentrations of lenalidomide, all donors): Increased anti-BCMA CAR T cytolytic activity against OPM-2 target cells
cytolytic activity of anti-CD19 CAR-expressing cells ([2]; 2.5:1 E:T ratio, some donors): slightly reduced cytolytic activity
cytolytic activity of anti-CD19 CAR-expressing T cells ([2]; 5:1 E:T ratio, high concentrations, Donor 2, no effects with Donors 1 and 3): slight but consistent increase in cytolytic activity
cytolytic function of anti-CD19 CAR-expressing T cells ([2]; five days, three donors): limited effect on cytolytic function
